Marks after values point to notes of the source that are not given here.
Experiments:
[1] = tested on: B16M-F10/Tet-Bcl-2; test: Growth of hepatic metastases of B16M-F10/Tet-Bcl-2 in mice; assay type: in vivo; settings: 20 mg/kg i.v. daily x10 days; for Volume of metastases: none 25 ± 6; for Density of metastases: none 29 ± 5
Procedure: (§1) Hepatic metastases were induced by i.v. inoculations (portal vein), in anesthetized mice (Nembutal, 50 mg/kg i.p.), of 4×10^5 viable B16M-F10 cells suspended in 0.2 ml of DMEM. The mice were sacrificed by cervical dislocation 10 days after inoculation. The livers were fixed by immersion for 24 hours at 22° C. in 10% formaldehyde in PBS (pH 7.4), and were subsequently embedded in paraffin. The density of metastases (average number of foci/100 mm^3 of liver detected in fifteen sections of 10×10 mm^2 per liver) and the volume of metastases (average percentage of liver volume occupied by metastases) were determined as described previously (22).
This methodology makes it possible for the effect of PTER and QUER to be studied in vivo. For this purpose, mice were inoculated with B16M-F10 control cells or B16M-F10/Tet-Bcl-2 which overexpressed Bcl-2. Both subgroups of cells were cultivated beforehand in the absence or in the presence of t-PTER and QUER. B16M-F10 cells were cultivated for 72 hours. t-RESV (12 μM), t-PTER (40 μM), and QUER (20 μM) were added at 6, 30 and 54 hours of culture time, and were present in each case for just 60 minutes. Then they were removed from the culture flasks by washing (3 times with PBS) and the medium was renewed. The levels of Bcl-2 in the B16M-F10 control cells and cells treated with Tet-Bcl-2 were 24±5 and 105±14 units/mg of protein, respectively (n=5 in each case, P<0.01). The number of adhering cells shown in the table was calculated at 60 minutes postinjection (no significant differences were found when the measurements were effected at 30, 120, 180, 240 or 360 minutes postinjection, data not shown). The number of intact cells was calculated at 6 hours postinjection. The experimental microscopy data in vivo are mean values±SD corresponding to 4-5 different experiments. The growth of metastases in the liver was evaluated as stated in the corresponding section of the description, and in this case the mice were treated daily (×10 days) with t-PTER and/or QUER (20 mg/kg of body weight) administered i.v. (the data are mean values±SD corresponding to 25 mice per group). A similar method and equal number of mice per group were used for evaluating the survival of the carrier animals. The test of significance relates, in all the groups, to comparison between cases with PTER and/or QUER and cases without additions (*P<0.05 and **P<0.01), and to comparison between the B16M-F10/Tet-Bcl-2 cells with the B16M-F10 control cells (^+P<0.05, ^++P<0.01). […] This is the first time that the combined administration in vivo of natural polyphenols has induced inhibition of metastatic growth of a highly malignant tumor and an increase in the survival of the carrier.

[2] = tested on: B16M-F10; test: Survival of mice carrying B16M-F10 metastases; assay type: in vivo; settings: for Survival of the carrier: B16M-F10, 20 mg/kg i.v. daily, none 13 ± 2
Procedure: as §1
This methodology makes it possible for the effect of PTER and QUER to be studied in vivo. For this purpose, mice were inoculated with B16M-F10 control cells or B16M-F10/Tet-Bcl-2 which overexpressed Bcl-2. Both subgroups of cells were cultivated beforehand in the absence or in the presence of t-PTER and QUER. B16M-F10 cells were cultivated for 72 hours. t-RESV (12 μM), t-PTER (40 μM), and QUER (20 μM) were added at 6, 30 and 54 hours of culture time, and were present in each case for just 60 minutes. Then they were removed from the culture flasks by washing (3 times with PBS) and the medium was renewed. The levels of Bcl-2 in the B16M-F10 control cells and cells treated with Tet-Bcl-2 were 24±5 and 105±14 units/mg of protein, respectively (n=5 in each case, P<0.01). The number of adhering cells shown in the table was calculated at 60 minutes postinjection (no significant differences were found when the measurements were effected at 30, 120, 180, 240 or 360 minutes postinjection, data not shown). The number of intact cells was calculated at 6 hours postinjection. […] The growth of metastases in the liver was evaluated as stated in the corresponding section of the description, and in this case the mice were treated daily (×10 days) with t-PTER and/or QUER (20 mg/kg of body weight) administered i.v. (the data are mean values±SD corresponding to 25 mice per group). […]

[3] = Extravascular (tissue) levels after intravenous administration in mice; assay type: in vivo; set-up: unit not given here; settings: 20 mg/kg i.v.
Procedure: For the pharmacokinetic studies and for the daily treatment, the mice were administered i.v. (via the jugular vein, where a permanent catheter had previously been fixed by surgical methods; i.v. administration was carried out slowly for 1 minute), and orally (via stomach tube), 20 mg/kg of t-PTER (dissolved in ethanol 0.5 ml/kg of animal weight) or QUER (dissolved in dimethylsulfoxide:saline, 1:0.5 0.15 ml/kg of weight). In general, the compositions based on a combination of PTER and QUER can contain, as excipients, those stated previously or any others that are pharmaceutically acceptable. The presentation of said compositions can be, non-limitatively, in the form of solids such as tablets, capsules, pellets, pills, etc. and liquid presentations such as drops, syrups, injectables, etc. Moreover, the active principles (PTER and QUER) of the composition can be in their uncombined forms or in the form of pharmaceutically acceptable salts, including esters. The t-PTER was synthesized in our laboratory following standardized reactions of Wittig and Heck (www.orgsyn.org), whereas the QUER was obtained from Sigma Chemical Co. (San Luis, Mo., USA). The ^3H-t-PTER (2.2 Ci/mmol), labeled in the ortho and para positions of the benzene rings, was prepared in our laboratory according to a method similar to that used for the deuteration of phenols (18). ^14C-QUER (50 mCi/mmol), labeled in position 4 of the carbon ring, was obtained from the NCI Radiochemical Carcinogen Repository of Chemsyn Laboratories (Kansas City, Mo., USA). The radioactivity was measured using a Varisette 2700 TR analyzer from Packard. Blood was collected by means of the catheter in 1-ml syringes that contained heparin sodium (0.05 ml of a 5% solution in […]). The plasma and the erythrocytes were separated as described previously (19).
To supplement the pharmacokinetics in plasma/blood, we also evaluated the bioavailability of PTER and QUER in extravascular tissues. […] Therefore, it appears that neither of the polyphenols is subject to extravascular accumulation and that their presence in various tissues (Table 2) is parallel in time to their bioavailability in the bloodstream (FIG. 1).
The animals were treated with t-PTER or QUER (20 mg/kg, containing 5 μCi of ^3H-t-PTER or 2 μCi ^14C-QUER). A group of 4-5 mice was sacrificed at each time point. Not detectable=n.d. *P<0.01 comparing the data obtained at 10-60 minutes with the data found 5 minutes after administration of the polyphenol.

[4] = rabbits, i.v., cited from earlier work
[5] = tested on: B16M-F10 cells / HSE; settings: as described previously (ref. 14); cited from earlier work
[6] = tested on: VCAM-1; settings: cited from earlier work
[7] = tested on: B16M-F10 cells / HSE; settings: as described previously (ref. 14); cited from earlier work; remark: listed apart in the source

| Structure (SMILES) | Volume of metastases [1] | Density of metastases [1] | Survival of the carrier [2] [days] | Extravascular level, Brain ([3]; 5 min) | Extravascular level, Kidney ([3]; 5 min) | Extravascular level, Liver ([3]; 5 min) | Extravascular level, Lung ([3]; 5 min) | Extravascular level, Brain ([3]; 10 min) | Extravascular level, Kidney ([3]; 10 min) | Extravascular level, Liver ([3]; 10 min) | Extravascular level, Lung ([3]; 10 min) | Extravascular level, Liver ([3]; 30 min) | Extravascular level, Lung ([3]; 30 min) | also measured |
| --- | --- | --- | --- | --- | --- | --- | --- | --- | --- | --- | --- | --- | --- | --- |
| COc1cc(/C=C/c2ccc(O)cc2)cc(OC)c1 [PTER, pterostilbene] | 15 ± 3** percentage of liver volume | 15 ± 3** number of foci/100 mm^3 | 15 ± 2 | 5 ± 1 | 3 ± 1 | 14 ± 4 | 36 ± 6 | 2 ± 0.5* | 3 ± 0.3 | 7 ± 1* | 15 ± 3* | 3 ± 0.5* | 6 ± 1* | Extravascular level, Kidney ([3]; 30 min): 2 ± 0.4*; Extravascular level, Kidney ([3]; 60 min): 1 ± 0.3*; Extravascular level, Lung ([3]; 60 min): 2 ± 1* |
| O=c1c(O)c(-c2ccc(O)c(O)c2)oc2cc(O)cc(O)c12 [QUER, quercetin] | 24 ± 5^++ percentage of liver volume | 26 ± 516^++ number of foci/100 mm^3 | 15 ± 1 | 4 ± 1 | 1 ± 0.2 | 9 ± 3 | 15 ± 3 | 2 ± 0.4* | 1 ± 0.5 | 3 ± 1*^ | 8 ± 2* | 1 ± 0.2* | 2 ± 0.6* | highest concentration in plasma ([4]; 5 minutes after administration): ~43 µM; time in which plasma concentration falls to ~1 μM [4]: 60 min; effect on survival of the carrier host ([2]; B16M-F10 control cells, daily i.v. administration): neither of these compounds significantly increased the survival |
| Oc1ccc(C=Cc2cc(O)cc(O)c2)cc1 [RESV, resveratrol, reference compound] | – | – | – | – | – | – | – | – | – | – | – | – | – | effect on HSE-induced cytotoxicity on the metastatic cells [5]: without increasing the HSE-induced cytotoxicity; concentration at which expression of VCAM-1 is inhibited [6]: 1 µM; inhibition of adhesion of tumor cells to the endothelium [7]: ~47% |

From patent publication US8227510B2, “Combine use of pterostilbene and quercetin for the production of cancer treatment medicaments” (Universitat de Valencia, priority 2004, dated 2012)
